Data set [1] can be described thus: Hydrolytic stability assay at pH 2. The following applies: buffer pH 2, 37° C., compounds of the invention. The data set is classed as physicochemical. In a few lines: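 Compound from a 10 mM DMSO stock was diluted in acetonitrile, added to pH 2 buffer and incubated at 37° C. HPLC injections were made at time zero and after 1, 2 and 24 hrs. Decay (%) was calculated from peak areas relative to the time-zero injection.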

Data set [2] deals with T1, Mps-1 kinase (Homo sapiens, UniProt P33981).
T1 sequence (P33981 1-857): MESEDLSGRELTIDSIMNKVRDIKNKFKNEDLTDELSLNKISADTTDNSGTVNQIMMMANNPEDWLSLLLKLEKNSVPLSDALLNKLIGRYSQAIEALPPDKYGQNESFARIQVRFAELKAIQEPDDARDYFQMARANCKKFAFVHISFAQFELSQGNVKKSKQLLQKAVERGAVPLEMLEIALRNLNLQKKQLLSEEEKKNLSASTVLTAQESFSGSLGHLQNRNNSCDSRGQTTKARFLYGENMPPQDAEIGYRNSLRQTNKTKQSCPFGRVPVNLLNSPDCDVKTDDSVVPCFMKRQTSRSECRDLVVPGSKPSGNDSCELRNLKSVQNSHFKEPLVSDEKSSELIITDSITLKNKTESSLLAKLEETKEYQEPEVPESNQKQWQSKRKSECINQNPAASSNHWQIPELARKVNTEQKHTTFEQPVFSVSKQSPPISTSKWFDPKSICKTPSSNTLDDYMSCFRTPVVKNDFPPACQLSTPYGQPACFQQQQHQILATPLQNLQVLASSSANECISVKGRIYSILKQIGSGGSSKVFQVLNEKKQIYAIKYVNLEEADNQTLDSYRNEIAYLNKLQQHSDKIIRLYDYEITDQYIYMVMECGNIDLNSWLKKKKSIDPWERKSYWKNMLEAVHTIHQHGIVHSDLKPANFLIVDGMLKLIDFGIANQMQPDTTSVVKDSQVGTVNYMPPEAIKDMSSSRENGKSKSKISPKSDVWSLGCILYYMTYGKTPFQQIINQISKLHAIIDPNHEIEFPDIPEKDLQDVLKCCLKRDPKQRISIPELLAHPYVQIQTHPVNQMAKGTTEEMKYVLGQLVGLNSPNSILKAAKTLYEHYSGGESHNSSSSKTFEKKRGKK
Kind of data set: Mps-1 kinase assay with 10 μM ATP (TR-FRET).

The target in data set [3] is T1, Mps-1 kinase. Kind of data set: Mps-1 kinase assay with 2 mM ATP (TR-FRET). (Time-resolved FRET reads energy transfer from a long-lived donor to a nearby acceptor.)

Each structure is given as a SMILES string. pIC50: −log10 of the molar value.

With `COc1cc(C(=O)NC(C)(C)CO)ccc1Nc1nc2ccc(-c3ccc(C(=O)NCc4ccc(F)cc4)c(OC)c3)cn2n1` [Example 08.1, N-(4-fluorobenzyl)-4-[2-({4-[(1-hydroxy-2-methylpropan-2-yl)carbamoyl]-2-methoxyphenyl}amino)[1,2,4]triazolo[1,5-α]pyridin-6-yl]-2-methoxybenz-amide], the “Hydrolysis at pH 2; Decay in % after 24 h” value (shortened to “Hydrolysis … in % after 24 h”) in data set [1] is given as below 10%. Moreover, the results for the pIC50 against Mps-1 kinase [2] and at Mps-1 kinase [3] were at least 9.00 and 8.37, respectively.
Turning to `CCOc1cc(C(=O)NCCO)ccc1Nc1nc2ccc(-c3ccc(C(=O)NCc4ccc(F)cc4)cc3)cn2n1` [Example 02.2, 3-ethoxy-4-[(6-{4-[(4-fluorobenzyl)carbamoyl]phenyl}[1,2,4]triazolo[1,5-α]pyridin-2-yl)amino]-N-(2-hydroxyethyl)benzamide], the “Hydrolysis … in % after 24 h” value in data set [1] is below 10%. The pIC50 against Mps-1 kinase [2] and against Mps-1 kinase [3] was at least 9.00 in each case.
For the molecule `CNC(=O)c1ccc(Nc2nc3ccc(-c4ccc(C(=O)NCc5ccc(F)cc5)cc4)cn3n2)c(OC)c1` [Example 02.13, 4-[(6-{4-[(4-fluorobenzyl)carbamoyl]phenyl}[1,2,4]triazolo[1,5-α]pyridin-2-yl)amino]-3-methoxy-N-methylbenzamide], the “Hydrolysis … in % after 24 h” value in data set [1] is recorded as below 10%. In addition, the pIC50 at Mps-1 kinase [2] and at Mps-1 kinase [3] was at least 9.00 throughout.
In the case of `CC(C)(O)CNC(=O)c1ccc(Nc2nc3ccc(-c4ccc(NC(=O)Cc5ccc(F)cc5)cc4)cn3n2)c(OCC(F)(F)F)c1` [Example 01.29, 4-{[6-(4-{[(4-fluorophenyl)acetyl]amino}phenyl)[1,2,4]triazolo[1,5-α]-pyridin-2-yl]amino}-N-(2-hydroxy-2-methylpropyl)-3-(2,2,2-trifluoro-ethoxy)benzamide], the “Hydrolysis … in % after 24 h” value in data set [1] is below 10%. For the same molecule, the pIC50 at Mps-1 kinase [2] and on Mps-1 kinase [3] was at least 9.00 throughout.
For the molecule `CCN(CC)C(=O)c1ccc(Nc2nc3ccc(-c4ccc(NC(=O)Cc5ccc(F)cc5)cc4)cn3n2)c(OC(C)C)c1` [Example 01.25, N,N-diethyl-4-{[6-(4-{[(4-fluorophenyl)acetyl]amino}phenyl)[1,2,4]triazolo-[1,5-α]pyridin-2-yl]amino}-3-isopropoxybenzamide], in data set [1], the “Hydrolysis … in % after 24 h” value is given as below 10%. The values for the pIC50 on Mps-1 kinase [2] and against Mps-1 kinase [3] were at least 9.00 and 8.89, respectively.
For `COc1cc(C(=O)N(C)CCN(C)C(C)=O)ccc1Nc1nc2ccc(-c3ccc(C(=O)NCc4ccc(F)cc4)cc3)cn2n1` [Example 02.9, N-{2-[acetyl(methyl)amino]ethyl}-4-[(6-{4-[(4-fluorobenzyl)carbamoyl]-phenyl}[1,2,4]triazolo[1,5-α]pyridin-2-yl)amino]-3-methoxy-N-methylbenzamide] the same measures were below 10%, at least 9.00 and 8.66.
Turning to `COc1cc(C(=O)NCC(F)(F)F)ccc1Nc1nc2ccc(-c3ccc(C(=O)NCc4ccc(F)cc4)cc3)cn2n1` [Example 02.17, 4-[(6-{4-[(4-fluorobenzyl)carbamoyl]phenyl}[1,2,4]triazolo[1,5-α]pyridin-2-yl)amino]-3-methoxy-N-(2,2,2-trifluoroethyl)benzamide], the “Hydrolysis … in % after 24 h” value in data set [1] is reported as below 10%. Moreover, the pIC50 on Mps-1 kinase [2] is at least 9.00; at Mps-1 kinase [3], 8.34.
With `O=C(Cc1ccc(F)cc1)Nc1ccc(-c2ccc3nc(Nc4ccc(C(=O)NCCO)cc4OCC(F)(F)F)nn3c2)cc1` [Example 01.11, 4-{[6-(4-{[(4-fluorophenyl)acetyl]amino}phenyl)[1,2,4]triazolo[1,5-α]-pyridin-2-yl]amino}-N-(2-hydroxyethyl)-3-(2,2,2-trifluoroethoxy)benzamide], the “Hydrolysis … in % after 24 h” value in data set [1] is given as below 10%. Moreover, the pIC50 on Mps-1 kinase [2] and against Mps-1 kinase [3] was at least 9.00 each time.
As for `COc1cc(C(=O)NC(C)(C)CO)ccc1Nc1nc2ccc(-c3ccc(C(=O)NCc4ccc(F)cc4)c(C)c3)cn2n1` [Example 04.1, N-(4-fluorobenzyl)-4-[2-({4-[(1-hydroxy-2-methylpropan-2-yl)carbamoyl]-2-methoxyphenyl}amino)[1,2,4]triazolo[1,5-α]pyridin-6-yl]-2-methylbenz-amide], in data set [1], the “Hydrolysis … in % after 24 h” value is listed as below 10%. Moreover, the negative-log IC50 (pIC50) was at least 9.00 against Mps-1 kinase [2] and 7.80 against Mps-1 kinase [3].
Take `CCOCCNC(=O)c1ccc(Nc2nc3ccc(-c4ccc(C(=O)NCc5ccc(F)cc5)cc4)cn3n2)c(OC)c1` [Example 02.10, N-(2-ethoxyethyl)-4-[(6-{4-[(4-fluorobenzyl)carbamoyl]phenyl}[1,2,4]-triazolo[1,5-α]pyridin-2-yl)amino]-3-methoxybenzamide]: the “Hydrolysis … in % after 24 h” value in data set [1] is below 10%. In addition, the pIC50 on Mps-1 kinase [2] is at least 9.00; against Mps-1 kinase [3] it was 8.64.
On the same counts, the results for `CCOc1cc(C(=O)NCCS(C)(=O)=O)ccc1Nc1nc2ccc(-c3ccc(NC(=O)Cc4ccc(F)cc4)cc3)cn2n1` [Example 01.28, 3-ethoxy-4-{[6-(4-{[(4-fluorophenyl)acetyl]amino}phenyl)[1,2,4]triazolo-[1,5-α]pyridin-2-yl]amino}-N-[2-(methylsulfonyl)ethyl]benzamide] are below 10%, at least 9.00 and at least 9.00.
On to `CCOc1cc(C(=O)NCCS(C)(=O)=O)ccc1Nc1nc2ccc(-c3ccc(C(=O)NCc4ccc(F)cc4)cc3)cn2n1` [Example 02.19, 3-ethoxy-4-[(6-{4-[(4-fluorobenzyl)carbamoyl]phenyl}[1,2,4]triazolo[1,5-α]pyridin-2-yl)amino]-N-[2-(methylsulfonyl)ethyl]benzamide], for which the “Hydrolysis … in % after 24 h” value in data set [1] is below 10%. Also, the pIC50 at Mps-1 kinase [2] and against Mps-1 kinase [3] was at least 9.00 in each case.
On to `CCCOc1cc(C(=O)N(CC)CC)ccc1Nc1nc2ccc(-c3ccc(NC(=O)Cc4ccc(F)cc4)cc3)cn2n1` [Example 01.23, N,N-diethyl-4-{[6-(4-{[(4-fluorophenyl)acetyl]amino}phenyl)[1,2,4]triazolo-[1,5-α]pyridin-2-yl]amino}-3-propoxybenzamide], for which the “Hydrolysis … in % after 24 h” value in data set [1] was below 10%. Moreover, the pIC50 against Mps-1 kinase [2] was at least 9.00; on Mps-1 kinase [3], 8.96.
In the case of `COc1cc(C(=O)N(C)CCN(C)C(C)=O)ccc1Nc1nc2ccc(-c3ccc(NC(=O)Cc4ccc(F)cc4)cc3)cn2n1` [Example 01.14, N-{2-[acetyl(methyl)amino]ethyl}-4-{[6-(4-{[(4-fluorophenyl)acetyl]amino}-phenyl)[1,2,4]triazolo[1,5-α]pyridin-2-yl]amino}-3-methoxy-N-methylbenzamide], in data set [1], the “Hydrolysis … in % after 24 h” value is listed as below 10%. The pIC50 on Mps-1 kinase [2] and against Mps-1 kinase [3] was at least 9.00 each time.
As for `CCOc1cc(C(=O)N(CC)CCOC)ccc1Nc1nc2ccc(-c3ccc(NC(=O)Cc4ccc(F)cc4)cc3)cn2n1` [Example 01.18, 3-ethoxy-N-ethyl-4-{[6-(4-{[(4-fluorophenyl)acetyl]amino}phenyl)[1,2,4]-triazolo[1,5-α]pyridin-2-yl]amino}-N-(2-methoxyethyl)benzamide], the “Hydrolysis … in % after 24 h” value in data set [1] was below 10%. The pIC50 against Mps-1 kinase [2] and against Mps-1 kinase [3] was at least 9.00 each time.
In the case of `CCNC(=O)c1ccc(Nc2nc3ccc(-c4ccc(NC(=O)Cc5ccc(F)cc5)cc4)cn3n2)c(OCC)c1` [Example 01.16, 3-ethoxy-N-ethyl-4-{[6-(4-{[(4-fluorophenyl)acetyl]amino}phenyl)[1,2,4]-triazolo[1,5-α]pyridin-2-yl]amino}benzamide], in data set [1], the “Hydrolysis … in % after 24 h” value is on record as below 10%. Further, the pIC50 on Mps-1 kinase [2] and on Mps-1 kinase [3] was at least 9.00 each time.
`COc1cc(C(=O)NC(C)(C)CO)ccc1Nc1nc2ccc(-c3ccc(NC(=O)Cc4ccc(F)cc4)cc3)cn2n1` [Example 01.13, 4-{[6-(4-{[(4-fluorophenyl)acetyl]amino}phenyl)[1,2,4]triazolo[1,5-α]-pyridin-2-yl]amino}-N-(1-hydroxy-2-methylpropan-2-yl)-3-methoxy-benzamide]: the “Hydrolysis … in % after 24 h” value in data set [1] is recorded as below 10%. The pIC50 at Mps-1 kinase [2] and against Mps-1 kinase [3] was at least 9.00 each time.
As for `COc1cc(C(=O)NC(C)(C)CO)ccc1Nc1nc2ccc(-c3ccc(C(=O)NCc4ccc(F)cc4)c(F)c3)cn2n1` [Example 03.1, 2-fluoro-N-(4-fluorobenzyl)-4-[2-({4-[(1-hydroxy-2-methylpropan-2-yl)-carbamoyl]-2-methoxyphenyl}amino)[1,2,4]triazolo[1,5-α]pyridin-6-yl]-benzamide], the “Hydrolysis … in % after 24 h” value in data set [1] is below 10%. Further, the pIC50 against Mps-1 kinase [2] is at least 9.00; at Mps-1 kinase [3], 8.16.

The pIC50 is the IC50 on a negative log10 scale, so that one unit is a factor of ten. A lower pIC50 goes with a large IC50.

For the origin of these results see patent publication US20140120087A1, “TRIAZOLOPYRIDINES” (BAYER INTELLECTUAL PROPERTY GMBH, priority 2011, published 2014).
